From patent US20110105623A1 (Biogenic Innovations, LLC, priority 2009, published 2011)
Several values for one entry are separate records, joined by “and”; a condition that tells them apart may be missing. Identical values can stand only once. Like-named read-outs stand apart in the source and are kept apart here.

Tests used:
E. coli = assay: Log growth in MSM-lactose broth with or without DMSO; format: cell-based, Escherichia coli; details: 24 hours
Method: Lactose broth, free of both NaCl and of proteins, was used as the media in this experiment. […] Each media composition was initially inoculated with 6.75×10^6 cfu/mL of E. coli. Cultures were incubated at 25° C. for seven days. Aliquots of each culture were taken after 24 hours of culturing and at the end of seven days in culture. Aliquots were serially diluted (with Modified Letheen diluent) and plated on trypto-soy agar plates.

Staphylococcus aureus = assay: USP <51> AET in cosmetic cream/composition; format: cell-based; details: for Log Reduction from Initial Microorganism Inoculum: 14, 28 Days
[1] = system: Herpes Simplex Virus type 1 (ATCC #VR-260); format: cell-based
Pseudomonas aeruginosa = assay: USP <51> AET in cosmetic cream/composition; format: cell-based; details: for AET microorganism count: 48 hrs-28 days; for Log Reduction from Initial Microorganism Inoculum: 14, 28 Days
[2] = system: Lactobacillus delbrueckii (Lactobacillus bulgaricus); assay: Probiotic growth in media supplemented with MSM; format: cell-based; set-up: unit not given here
Excerpt: (§1) Plates were then counted. […] Data are presented in Cfu/mL.

Bifidobacterium bifidum = assay: Probiotic growth in media supplemented with MSM; format: cell-based; set-up: unit not given here
Excerpt: as §1

[3] = 10% MSM in preservative-free jojoba cream

Methylsulfonylmethane [MSM]
reduced bacterial growth (E. coli; 11% MSM): about 2.2 logs
reduced bacterial growth (E. coli; 16% MSM): about 1 log
AET microorganism count (Staphylococcus aureus; 10% MSM in cosmetic cream without preservative, 48 hrs-28 days): <10
Log Reduction from Initial Microorganism Inoculum (Staphylococcus aureus; [3]): 5.6 log
Log Reduction from Initial Microorganism Inoculum (Staphylococcus aureus; 10% MSM, Composition #1): 5.7 log
Log Reduction from Initial Microorganism Inoculum (Staphylococcus aureus; 10% MSM, Composition #2): 5.7 log
Average TCID50 [1]: 3.17log10 and 4.67log10 and 4.33log10 and 4.08log10 and 4.83log10 and 5.00log10 and 5.42log10
CPE at dilution −8 [1]: 0000
Response, % reduction [1]: 78.620% and 99.320% and 99.790% and 87.980% and 93.240% and 98.800% and 97.860% and 61.980%
average log10 reduction ([1]; 1% MSM): 0.67 log10
average percent reduction ([1]; 1% MSM): 78.62%
average log10 reduction ([1]; 2% MSM): 0.84 log10
average percent reduction ([1]; 2% MSM): 85.55%
average log10 reduction ([1]; 3% MSM): 1.00 log10
average percent reduction ([1]; 3% MSM): 90.00%
average percent reduction ([1]; 4% MSM): 97.43%
Response, % reduction ([1]; Dose 5.312 mM (log dose 0.7252581)): 32.390% and 61.980%
Response, % reduction ([1]; Dose 31.871 mM (log dose 1.503396)): 96.200% and 93.240% and 61.980%
Response, % reduction ([1]; Dose 53.118 mM (log dose 1.725242)): 87.980% and 93.240% and 98.800%
HillSlope, best-fit value ([1]; log(inhibitor) vs. normalized response, variable slope): 1.523
LogIC50, best-fit value ([1]; log(inhibitor) vs. normalized response, variable slope, dose in mM): 1.006
AET microorganism count (Pseudomonas aeruginosa; 10% MSM in Preservative Free Cosmetic Composition #1, 48 hours after inoculation): 7.3 × 10^3
AET microorganism count (Pseudomonas aeruginosa; 10% MSM in Preservative Free Cosmetic Composition #1, 7 days after inoculation): <10
AET microorganism count (Pseudomonas aeruginosa; 10% MSM in cosmetic cream without preservative): <10
Log Reduction from Initial Microorganism Inoculum (Pseudomonas aeruginosa; [3]): 5.3 log
Log Reduction from Initial Microorganism Inoculum (Pseudomonas aeruginosa; 10% MSM, Composition #1): 5.8 log
Log Reduction from Initial Microorganism Inoculum (Pseudomonas aeruginosa; 10% MSM, Composition #2): 5.8 log
Growth of Lactobacillus bulgaricus ([2]; 0.125% MSM, 0 h): 2.29
Growth of Lactobacillus bulgaricus ([2]; 0.125% MSM, 8 h): 4.15
Growth of Lactobacillus bulgaricus ([2]; 0.125% MSM, 16 h): 8.22
Growth of Lactobacillus bulgaricus ([2]; 0.125% MSM, 24 h): 9.04
Growth of Lactobacillus bulgaricus ([2]; 0.125% MSM, 32 h): 8.55
Growth of Lactobacillus bulgaricus ([2]; 0.125% MSM, 40 h): 9.29
Growth of Lactobacillus bulgaricus ([2]; 0.125% MSM, 48 h): 10.94
Growth of Lactobacillus bulgaricus ([2]; 0.125% MSM, 56 h): 8.00
Growth of Lactobacillus bulgaricus ([2]; 0.125% MSM, 64 h): 8.59
Growth of Lactobacillus bulgaricus ([2]; 0.125% MSM, 72 h): 6.74
Growth of Lactobacillus bulgaricus ([2]; 0.2% MSM, 0 h): 2.25
Growth of Lactobacillus bulgaricus ([2]; 0.2% MSM, 8 h): 4.08
Growth of Lactobacillus bulgaricus ([2]; 0.2% MSM, 16 h): 8.34
Growth of Lactobacillus bulgaricus ([2]; 0.2% MSM, 24 h): 9.10
Growth of Lactobacillus bulgaricus ([2]; 0.2% MSM, 32 h): 9.60
Growth of Lactobacillus bulgaricus ([2]; 0.2% MSM, 40 h): 9.11
Growth of Lactobacillus bulgaricus ([2]; 0.2% MSM, 48 h): 11.07
Growth of Lactobacillus bulgaricus ([2]; 0.2% MSM, 56 h): 8.79
Growth of Lactobacillus bulgaricus ([2]; 0.2% MSM, 64 h): 8.79
Growth of Lactobacillus bulgaricus ([2]; 0.2% MSM, 72 h): 6.72
Growth of Lactobacillus bulgaricus ([2]; 0.50% MSM, 0 h): 2.23
Growth of Lactobacillus bulgaricus ([2]; 0.50% MSM, 8 h): 4.42
Growth of Lactobacillus bulgaricus ([2]; 0.50% MSM, 16 h): 8.28
Growth of Lactobacillus bulgaricus ([2]; 0.50% MSM, 24 h): 9.05
Growth of Lactobacillus bulgaricus ([2]; 0.50% MSM, 32 h): 9.54
Growth of Lactobacillus bulgaricus ([2]; 0.50% MSM, 40 h): 9.40
Growth of Lactobacillus bulgaricus ([2]; 0.50% MSM, 48 h): 10.82
Growth of Lactobacillus bulgaricus ([2]; 0.50% MSM, 56 h): 9.14
Growth of Lactobacillus bulgaricus ([2]; 0.50% MSM, 64 h): 8.80
Growth of Lactobacillus bulgaricus ([2]; 0.50% MSM, 72 h): 6.72
Growth of Lactobacillus bulgaricus ([2]; 1% MSM, 0 h): 2.29
Growth of Lactobacillus bulgaricus ([2]; 1% MSM, 8 h): 4.83
Growth of Lactobacillus bulgaricus ([2]; 1% MSM, 16 h): 8.36
Growth of Lactobacillus bulgaricus ([2]; 1% MSM, 24 h): 9.03
Growth of Lactobacillus bulgaricus ([2]; 1% MSM, 32 h): 9.31
Growth of Lactobacillus bulgaricus ([2]; 1% MSM, 40 h): 9.34
Growth of Lactobacillus bulgaricus ([2]; 1% MSM, 48 h): 11.23
Growth of Lactobacillus bulgaricus ([2]; 1% MSM, 56 h): 8.11
Growth of Lactobacillus bulgaricus ([2]; 1% MSM, 64 h): 6.50
Growth of Lactobacillus bulgaricus ([2]; 1% MSM, 72 h): 6.45
Growth of Lactobacillus bulgaricus ([2]; 5% MSM, 0 h): 2.19
Growth of Lactobacillus bulgaricus ([2]; 5% MSM, 8 h): 3.28
Growth of Lactobacillus bulgaricus ([2]; 5% MSM, 16 h): 7.39
Growth of Lactobacillus bulgaricus ([2]; 5% MSM, 24 h): 8.50
Growth of Lactobacillus bulgaricus ([2]; 5% MSM, 32 h): 9.29
Growth of Lactobacillus bulgaricus ([2]; 5% MSM, 40 h): 9.37
Growth of Lactobacillus bulgaricus ([2]; 5% MSM, 48 h): 10.92
Growth of Lactobacillus bulgaricus ([2]; 5% MSM, 56 h): 10.07
Growth of Lactobacillus bulgaricus ([2]; 5% MSM, 64 h): 10.96
Growth of Lactobacillus bulgaricus ([2]; 5% MSM, 72 h): 8.62
Growth of Lactobacillus bulgaricus ([2]; […] MSM, 0 h): 2.26
Growth of Lactobacillus bulgaricus ([2]; […] MSM, 8 h): 4.57
Growth of Lactobacillus bulgaricus ([2]; […] MSM, 16 h): 8.09
Growth of Lactobacillus bulgaricus ([2]; […] MSM, 24 h): 9.01
Growth of Lactobacillus bulgaricus ([2]; […] MSM, 32 h): 9.15
Growth of Lactobacillus bulgaricus ([2]; […] MSM, 40 h): 9.27
Growth of Lactobacillus bulgaricus ([2]; […] MSM, 48 h): 11.37
Growth of Lactobacillus bulgaricus ([2]; […] MSM, 56 h): 8.23
Growth of Lactobacillus bulgaricus ([2]; […] MSM, 64 h): 8.75
Growth of Lactobacillus bulgaricus ([2]; […] MSM, 72 h): 6.51
Growth of Bifidobacteruim bifidum (Bifidobacterium bifidum; 0.125% MSM, 0 h): 1.64
Growth of Bifidobacteruim bifidum (Bifidobacterium bifidum; 0.125% MSM, 8 h): 1.73
Growth of Bifidobacteruim bifidum (Bifidobacterium bifidum; 0.125% MSM, 16 h): 6.55
Growth of Bifidobacteruim bifidum (Bifidobacterium bifidum; 0.125% MSM, 24 h): 2.70
Growth of Bifidobacteruim bifidum (Bifidobacterium bifidum; 0.125% MSM, 32 h): 3.37
Growth of Bifidobacteruim bifidum (Bifidobacterium bifidum; 0.125% MSM, 40 h): 4.19
Growth of Bifidobacteruim bifidum (Bifidobacterium bifidum; 0.125% MSM, 48 h): 6.41
Growth of Bifidobacteruim bifidum (Bifidobacterium bifidum; 0.125% MSM, 56 h): 9.97
Growth of Bifidobacteruim bifidum (Bifidobacterium bifidum; 0.125% MSM, 64 h): 11.34
Growth of Bifidobacteruim bifidum (Bifidobacterium bifidum; 0.125% MSM, 72 h): 10.00
Growth of Bifidobacteruim bifidum (Bifidobacterium bifidum; 0.2% MSM, 0 h): 1.82
Growth of Bifidobacteruim bifidum (Bifidobacterium bifidum; 0.2% MSM, 8 h): 2.08
Growth of Bifidobacteruim bifidum (Bifidobacterium bifidum; 0.2% MSM, 16 h): 5.22
Growth of Bifidobacteruim bifidum (Bifidobacterium bifidum; 0.2% MSM, 24 h): 6.15
Growth of Bifidobacteruim bifidum (Bifidobacterium bifidum; 0.2% MSM, 32 h): 5.03
Growth of Bifidobacteruim bifidum (Bifidobacterium bifidum; 0.2% MSM, 40 h): 8.14
Growth of Bifidobacteruim bifidum (Bifidobacterium bifidum; 0.2% MSM, 48 h): 8.55
Growth of Bifidobacteruim bifidum (Bifidobacterium bifidum; 0.2% MSM, 56 h): 9.00
Growth of Bifidobacteruim bifidum (Bifidobacterium bifidum; 0.2% MSM, 64 h): 10.19
Growth of Bifidobacteruim bifidum (Bifidobacterium bifidum; 0.2% MSM, 72 h): 9.10
Growth of Bifidobacteruim bifidum (Bifidobacterium bifidum; 0.50% MSM, 0 h): 1.85
Growth of Bifidobacteruim bifidum (Bifidobacterium bifidum; 0.50% MSM, 8 h): 1.99
Growth of Bifidobacteruim bifidum (Bifidobacterium bifidum; 0.50% MSM, 16 h): 6.53
Growth of Bifidobacteruim bifidum (Bifidobacterium bifidum; 0.50% MSM, 24 h): 3.14
Growth of Bifidobacteruim bifidum (Bifidobacterium bifidum; 0.50% MSM, 32 h): 3.52
Growth of Bifidobacteruim bifidum (Bifidobacterium bifidum; 0.50% MSM, 40 h): 4.62
Growth of Bifidobacteruim bifidum (Bifidobacterium bifidum; 0.50% MSM, 48 h): 4.51
Growth of Bifidobacteruim bifidum (Bifidobacterium bifidum; 0.50% MSM, 56 h): 6.05
Growth of Bifidobacteruim bifidum (Bifidobacterium bifidum; 0.50% MSM, 64 h): 9.55
Growth of Bifidobacteruim bifidum (Bifidobacterium bifidum; 0.50% MSM, 72 h): 7.52
Growth of Bifidobacteruim bifidum (Bifidobacterium bifidum; 1% MSM, 0 h): 1.48
Growth of Bifidobacteruim bifidum (Bifidobacterium bifidum; 1% MSM, 8 h): 1.70
Growth of Bifidobacteruim bifidum (Bifidobacterium bifidum; 1% MSM, 16 h): 6.81
Growth of Bifidobacteruim bifidum (Bifidobacterium bifidum; 1% MSM, 24 h): 2.75
Growth of Bifidobacteruim bifidum (Bifidobacterium bifidum; 1% MSM, 32 h): 3.37
Growth of Bifidobacteruim bifidum (Bifidobacterium bifidum; 1% MSM, 40 h): 3.48
Growth of Bifidobacteruim bifidum (Bifidobacterium bifidum; 1% MSM, 48 h): 3.90
Growth of Bifidobacteruim bifidum (Bifidobacterium bifidum; 1% MSM, 56 h): 8.32
Growth of Bifidobacteruim bifidum (Bifidobacterium bifidum; 1% MSM, 64 h): 8.02
Growth of Bifidobacteruim bifidum (Bifidobacterium bifidum; 1% MSM, 72 h): 9.52
Growth of Bifidobacteruim bifidum (Bifidobacterium bifidum; 5% MSM, 0 h): 1.00
Growth of Bifidobacteruim bifidum (Bifidobacterium bifidum; 5% MSM, 8 h): 2.29
Growth of Bifidobacteruim bifidum (Bifidobacterium bifidum; 5% MSM, 16 h): 6.71
Growth of Bifidobacteruim bifidum (Bifidobacterium bifidum; 5% MSM, 24 h): 5.72
Growth of Bifidobacteruim bifidum (Bifidobacterium bifidum; 5% MSM, 32 h): 10.32
Growth of Bifidobacteruim bifidum (Bifidobacterium bifidum; 5% MSM, 40 h): 12.02
Growth of Bifidobacteruim bifidum (Bifidobacterium bifidum; 5% MSM, 48 h): 10.54
Growth of Bifidobacteruim bifidum (Bifidobacterium bifidum; 5% MSM, 56 h): 10.92
Growth of Bifidobacteruim bifidum (Bifidobacterium bifidum; 5% MSM, 64 h): 12.04
Growth of Bifidobacteruim bifidum (Bifidobacterium bifidum; 5% MSM, 72 h): 12.43
Growth of Bifidobacteruim bifidum (Bifidobacterium bifidum; […] MSM, 0 h): 1.64
Growth of Bifidobacteruim bifidum (Bifidobacterium bifidum; […] MSM, 8 h): 1.60
Growth of Bifidobacteruim bifidum (Bifidobacterium bifidum; […] MSM, 16 h): 6.21
Growth of Bifidobacteruim bifidum (Bifidobacterium bifidum; […] MSM, 24 h): 2.52
Growth of Bifidobacteruim bifidum (Bifidobacterium bifidum; […] MSM, 32 h): 3.37
Growth of Bifidobacteruim bifidum (Bifidobacterium bifidum; […] MSM, 40 h): 3.52
Growth of Bifidobacteruim bifidum (Bifidobacterium bifidum; […] MSM, 48 h): 3.95
Growth of Bifidobacteruim bifidum (Bifidobacterium bifidum; […] MSM, 56 h): 8.35
Growth of Bifidobacteruim bifidum (Bifidobacterium bifidum; […] MSM, 64 h): 8.30
Growth of Bifidobacteruim bifidum (Bifidobacterium bifidum; […] MSM, 72 h): 10.12
